Experimental data: patent publication US20260256772A1, “BENZOTHIAZOLE COMPOUND AND USE THEREOF” (NANJING REJU THERAPEUTICS, INC., priority 2022, published 2026)

Experiments:
senescent cells = experiment: Senescent cell killing, CellTiter-Glo cell viability; type: cell-based, human, mouse; settings: activity of killing senescent cells; cell type not specified
Excerpt: In this test example, human non-small cell lung cancer cell line (A549 cells), human embryonic lung fibroblast cell line (IMR90 cells), human retinal pigment epithelial cells (RPE cells), mouse chondrocytes, and mouse skin fibroblasts were selected. The above cells were induced by etoposide ([…]) to obtain their senescent cells. The effect of the target compounds on the viability of normal and senescent cells above was examined, thus assessing the specific killing effect of the compounds on senescent cells above.
Briefly, senescent and normal cells above were selected and plated separately (96-well plates). […] 2A to 2E.

platelets [1] = settings: under in vivo conditions; cited from earlier work
[2] = cited from earlier work
[3] = rats; cited from earlier work
platelets [4] = experiment: Platelet toxicity test in mice (platelet count); type: in vivo; settings: mice, 0.5 mg/kg single intraperitoneal injection, blood at 6 hours, FIG. 1
Experimental: In this test example, C57 mice were chosen to detect the effect of the target compounds on platelets.
7 to 8 weeks old […] mice were randomly divided into vehicle group and compound group. The test compound (0.5 mg/kg) or blank vehicle was administrated via single intraperitoneal injection. Blood was collected from the retroorbital venous plexus of the mice at 6 hours, and placed in a blood routine tube containing anticoagulant EDTA-K2. After shaking gently, the blood physiological indicators were measured using a hematology analyzer, with the platelet count as the target parameter for this platelet toxicity test.

[5] = Solubility test in pure water; type: physicochemical
Experimental: The following test protocol was used for the solubility tests of the compounds of the present invention:
1). The compounds to be tested were precisely weighed respectively, and formulated to a corresponding concentration (l mg/mL or 10 mg/mL) by adding a corresponding volume of pure water vortically shook for 1 minute every 3 minutes for 15 minutes to observe the dissolution, and then the dissolution was observed again after standing for 1 hour. 2). 0.2 mL of 1 mg/mL compound or sodium salt thereof was took, diluted to 0.1 mg/mL respectively by adding 1.8 mL water, vortically shook for 5 minutes to observe the dissolution, and then the dissolution was observed again after standing for 1 hour. 3). 1 mL of 1 mg/mL compound or sodium salt thereof was took, diluted to 0.5 mg/mL by adding 1 mL water, vortically shook for 5 minutes to observe the dissolution, and then the dissolution was observed again after standing for 1 hour.

## Cc1c(-c2ccc(N3CCc4cccc(C(=O)Nc5nc6ccccc6s5)c4C3)nc2C(=O)O)cnn1CC12CC3CC(CC(C3)C1)C2 [Compound A-1331852]
Senescent cells
  IC50: 0.2 to 1 µM
Platelets [1]
  platelet toxicity: significant platelet toxicity
[2]
  solubility in water: low solubility in water
[3]
  oral bioavailability: about 11%
Platelets [4]
  platelet toxicity (platelet count): severe platelet toxicity
[5]; formulated concentration 0.10 mg/mL in pure water
  During shaking: Visible solute particles
[5]; formulated concentration 1 mg/mL in pure water
  During shaking: Visible solute particles
